A short description of series [1]: log P by reversed-phase HPLC analogously to OECD Guideline 117. Type of series: physicochemical. The method, then: The log P values were determined analogously to OECD Guideline 117 (EC Directive 92/69/EEC) by HPLC (high-performance liquid chromatography) using reversed-phase columns (C 18), by the following methods:
[a] LC-MS determination in the acidic range is effected at pH 2.7 with 0.1% aqueous formic acid and acetonitrile (containing 0.1% formic acid) as eluents with a linear gradient from 10% acetonitrile to 95% acetonitrile; or with 0.025% aqueous trifluoroacetic acid and acetonitrile (containing 0.025% trifluoroacetic acid) as eluents with a linear gradient from 50% acetonitrile to 80% acetonitrile.
[b] LC-MS determination in the neutral range is effected at pH 7.8 with 0.001 molar aqueous ammonium hydrogencarbonate solution and acetonitrile as eluents; linear gradient from 10% acetonitrile to 95% acetonitrile.
Calibration is effected with solutions of a homologous series of unbranched alkan-2-ones (having 3 to 16 carbon atoms) with known log P values (log P values determined on the basis of the retention times by linear interpolation between two successive alkanones).

In series [2] the test system is greenhouse red spider mite (Tetranychus urticae). The series can be described thus: Tetranychus urticae spray test, OP-resistant (bean leaf discs). Conditions: after 6 days; for pest or weed control at 500 g/ha: Tetranychus urticae, foliar, 144 h, read-out: efficacy (spider mites killed). In kind it is in vivo. The method, then:
Tetranychus urticae—Spray Test, OP-Resistant
Solvent: 78.0 parts by weight of acetone • • 1.5 parts by weight of dimethylformamide
Emulsifier: alkylaryl polyglycol ether
To produce an appropriate active ingredient formulation, 1 part by weight of active ingredient is dissolved using the specified parts by weight of solvent and made up with water containing an emulsifier concentration of 1000 ppm until the desired concentration is attained. To produce further test concentrations, the preparation is diluted with emulsifier-containing water.
Discs of bean leaves (Phaseolus vulgaris) infested by all stages of the greenhouse red spider mite (Tetranychus urticae) are sprayed with an active ingredient formulation of the desired concentration.
After 6 days, the efficacy in % is determined. 100% means that all the spider mites have been killed; 0% means that none of the spider mites have been killed.

Setting [3] is: [a] acidic range, pH 2.7, formic acid (or trifluoroacetic acid)/acetonitrile.
Setting [4] is: [b] neutral range, pH 7.8, ammonium hydrogencarbonate/acetonitrile.
[5] abbreviates: reversed-phase C18 HPLC column, pH 2.7, table column, [a] acidic range, pH 2.7, formic acid (or trifluoroacetic acid)/acetonitrile, read-out: LogP[a].
Setting [6] is: reversed-phase C18 HPLC column, pH 7.8, table column, [b] neutral range, pH 7.8, ammonium hydrogencarbonate/acetonitrile, read-out: LogP[b].
Where [7] appears, read: reversed-phase C18 HPLC column, pH 2.7, running text, [a] acidic range, pH 2.7, read-out: log P[a].
[8] abbreviates: reversed-phase C18 HPLC column, pH 7.8, running text, [b] neutral range, pH 7.8, read-out: log P[b].
The mark [9] stands for this setting: reversed-phase C18 HPLC column, pH 2.7, running text, HCOOH, read-out: log P(HCOOH).

Where two headings read alike, the source gives them in different places.

29 compounds from US9783509B2, “Six-membered C-N-linked aryl sulfide derivatives and aryl sulfoxide derivatives as pest conrol agents” (BAYER CROPSCIENCE AKTIENGESELLSCHAFT, priority 2013, dated 2017) can be followed below.

Regarding “1-{2,4-Diethyl-5-[(2,2,2-trifluoroethyl)sulphinyl]phenyl}-6-methyl-2,4-dioxo-1,2,3,4-tetrahydropyrimidine-5-carbonitrile”, the “log P[a]” value in series [1] (pH 2.7) is 3.16.

As for `Cn1c(=O)cnn(-c2cc([S+]([O-])CC(F)(F)F)c(Cl)cc2Cl)c1=O` (racemic) [compound 13], the “efficacy (spider mites killed)” value in series [2] (application rate 500 g/ha) is reported as 90%. Besides, the “LogP[a]” value in series [1] (setting [3]) is 2.48.

In the case of `Cc1ccc(-n2ncc(=O)n(C)c2=O)cc1[S+]([O-])CC(F)(F)F` (racemic) [compound 24], the “efficacy (spider mites killed)” value in series [2] (application rate 500 g/ha) is 100%. Also, the “LogP[a]” value in series [1] (setting [3]) was 1.84. The “LogP[b]” value in series [1] (setting [4]) is given as 1.83.

Consider `CCn1c(=O)cnn(-c2cc([S+]([O-])CC(F)(F)F)c(C)cc2C)c1=O` (racemic) [compound 35], for which, in series [2] (application rate 500 g/ha), the “efficacy (spider mites killed)” value is recorded as 100%. For the same compound, in series [1] (setting [3]), the “LogP[a]” value is 2.31. Moreover, the “LogP[b]” value in series [1] (setting [4]) is 2.27.

As for `Cc1cc(C)c([S+]([O-])CC(F)(F)F)cc1-n1ncc(=O)n(CC2CC2)c1=O` (racemic) [compound 37], the “efficacy (spider mites killed)” value in series [2] (application rate 500 g/ha) is on record as 100%. Also, the “LogP[a]” value in series [1] (setting [3]) stood at 2.77. Moreover, the “LogP[b]” value in series [1] (setting [4]) came out at 2.73.

For `Cc1cc(C)c([S+]([O-])CC(F)(F)F)cc1-n1ncc(=O)n(C(C)C)c1=O` (racemic) [compound 38], the “efficacy (spider mites killed)” value in series [2] (application rate 500 g/ha) is given as 100%. Moreover, the “LogP[a]” value in series [1] (setting [3]) is given as 2.69. The “LogP[b]” value in series [1] (setting [4]) was determined as 2.67.

As to `Cc1cc(C)c([S+]([O-])CC(F)(F)F)cc1-n1ncc(=O)n(Cc2ccccc2)c1=O` (racemic) [compound 52], the “efficacy (spider mites killed)” value in series [2] (application rate 100 g/ha) was found to be 90%. The “LogP[a]” value in series [1] (setting [3]) is on record as 3.06. The “LogP[b]” value in series [1] (setting [4]) is reported as 3.00.

On to `Cc1cc(C)c([S+]([O-])CC(F)(F)F)cc1-n1ncc(=O)n(CC(F)(F)F)c1=O` (single isomer, unassigned) [compound 46], for which, in series [1] (setting [3]), the “LogP[a]” value is recorded as 2.72. The “LogP[b]” value in series [1] (setting [4]) worked out at 2.66.

Turning to `Cc1cc(F)c(-n2ncc(=O)n(CC(F)(F)F)c2=O)cc1[S+]([O-])CC(F)(F)F` (single isomer, unassigned) [compound 51], the “LogP[a]” value in series [1] (setting [3]) is given as 2.62. The “LogP[b]” value in series [1] (setting [4]) was 2.57.

For `Cc1cc(F)c(-n2ncc(=O)n(C)c2=O)cc1[S+]([O-])CC(F)(F)F` (single isomer, unassigned; (-)) [Ex. No. 28, (−)-2-[2-fluoro-4-methyl-5-(2,2,2-trifluoroethylsulphinyl)phenyl]-4-methyl-1,2,4-triazine-3,5-dione], the chromatographic logP was found to be 1.95 in series [1] (setting [5]) and 1.9 in series [1] (setting [6]).

`Cc1cc(F)c(-n2ncc(=O)[nH]c2=O)cc1SCC(F)(F)F` [2-{2-Fluoro-4-methyl-5-[(2,2,2-trifluoroethyl)sulphanyl]phenyl}-1,2,4-triazine-3,5(2H,4H)-dione]: the chromatographic logP in series [1] (setting [7]) came out at 2.45.

For the compound `Cc1cc(F)c(-n2nc(C(=O)O)c(=O)[nH]c2=O)cc1SCC(F)(F)F` [2-{2-Fluoro-4-methyl-5-[(2,2,2-trifluoroethyl)sulphanyl]phenyl}-3,5-dioxo-2,3,4,5-tetrahydro-1,2,4-triazine-6-carboxylic acid], the chromatographic logP in series [1] (setting [7]) amounted to 1.79.

Regarding `CCO/C=C/C(=O)NC(=O)Nc1cc(SCC(F)(F)F)c(C)cc1F` [(2E)-3-Ethoxy-N-({2-fluoro-4-methyl-5-[(2,2,2-trifluoroethyl)sulphanyl]phenyl}carbamoyl)-acrylamide], the chromatographic logP stood at 3.78 in series [1] (setting [7]) and 3.7 in series [1] (setting [8]).

In the case of `CCOC(=O)c1cn(-c2cc(SCC(F)(F)F)c(C)cc2F)c(=O)n(C2CC2)c1=O` [Ethyl 3-cyclopropyl-1-{2-fluoro-4-methyl-5-[(2,2,2-trifluoroethyl)sulphanyl]phenyl}-2,4-dioxo-1,2,3,4-tetrahydropyrimidine-5-carboxylate], the chromatographic logP was found to be 3.07 in series [1] (setting [7]) and 3.02 in series [1] (setting [8]).

In the case of `CCOC(=O)NC(=O)c1nn(-c2cc(SCC(F)(F)F)c(C)cc2F)c(=O)[nH]c1=O` [Ethyl [(2-{2-fluoro-4-methyl-5-[(2,2,2-trifluoroethyl)sulphanyl]phenyl}-3,5-dioxo-2,3,4,5-tetrahydro-1,2,4-triazin-6-yl)carbonyl]arbamate], the chromatographic logP in series [1] ([a] acidic range, pH 2.7, read-out: log P[a]) was 2.5.

As for `Cc1cc(F)c(-n2ncc(=O)[nH]c2=O)cc1[S+]([O-])CC(F)(F)F` (stereo not drawn) [Ex. No. 1, 2-{2-Fluoro-4-methyl-5-[(2,2,2-trifluoroethyl)sulphinyl]phenyl}-1,2,4-triazine-3,5(2H,4H)-dione], the chromatographic logP in series [1] (setting [7]) and in series [1] (setting [5]) was 1.58 in each case.

For `Cc1cc(C)c(-n2ncc(=O)n(C)c2=O)cc1SCC(F)(F)F` [Ex. No. 5], the “efficacy (spider mites killed)” value in series [2] (application rate 500 g/ha) is on record as 100%. Also, the “LogP[a]” value in series [1] (setting [3]) worked out at 3.08.

On to `Cc1cc(C)c(-n2ncc(=O)n(CC(F)(F)F)c2=O)cc1SCC(F)(F)F` [Ex. No. 7], for which the “efficacy (spider mites killed)” value in series [2] (application rate 500 g/ha) is given as 90%. Moreover, the “LogP[a]” value in series [1] (setting [3]) was 3.74.

Regarding `Cc1cc(F)c(-n2c(C)c(C#N)c(=O)[nH]c2=O)cc1[S+]([O-])CC(F)(F)F` (stereo not drawn) [Ex. No. 16, 1-{2-Fluoro-4-methyl-5-[(2,2,2-trifluoroethyl)sulphinyl]phenyl}-6-methyl-2,4-dioxo-1,2,3,4-tetrahydropyrimidine-5-carbonitrile], the pest or weed control at 500 g/ha in series [2] (application rate 500 g/ha) stood at 90%. Besides, the chromatographic logP in series [1] (setting [5]) was 1.58; in series [1] (setting [6]) it was 0.88.

As for `Cc1cc(F)c(-n2c(C)c(C#N)c(=O)[nH]c2=O)cc1SCC(F)(F)F` [Ex. No. 17, 1-{2-Fluoro-4-methyl-5-[(2,2,2-trifluoroethyl)sulphanyl]phenyl}-6-methyl-2,4-dioxo-1,2,3,4-tetrahydropyrimidine-5-carbonitrile], in series [2] (application rate 500 g/ha), the pest or weed control at 500 g/ha stood at 90%. Moreover, the chromatographic logP in series [1] (setting [7]) and in series [1] (setting [5]) was 2.43 throughout.

`CCc1cc(CC)c([S+]([O-])CC(F)(F)F)cc1-n1c(C)c(C#N)c(=O)[nH]c1=O` (stereo not drawn) [Ex. No. 18, 1-{2,4-Diethyl-5-[(2,2,2-trifluoroethyl)sulphinyl]phenyl}-6-methyl-2,4-dioxo-1,2,3,4-tetrahydropyrimidine-5-carbonitrile]: the pest or weed control at 500 g/ha in series [2] (application rate 500 g/ha) was 90%. The chromatographic logP in series [1] (setting [7]) turned out to be 2.15; in series [1] (setting [5]) it was 2.15; in series [1] (setting [8]), 1.55; in series [1] (setting [6]), 1.55.

Turning to `Cc1cc(F)c(-n2ccc(=O)[nH]c2=O)cc1SCC(F)(F)F` [Ex. No. 55, 1-{2-Fluoro-4-methyl-5-[(2,2,2-trifluoroethyl)sulphanyl]phenyl}pyrimidine-2,4(1H,3H)-dione], the pest or weed control at 500 g/ha in series [2] (application rate 500 g/ha) was 100%. Further, the chromatographic logP in series [1] (setting [7]) turned out to be 2.13; in series [1] (setting [5]) it was 2.06; in series [1] (setting [8]), 2.06; in series [1] (setting [6]) it was 2.13.

Turning to `CCc1cc(CC)c(SSc2cc(NC(C)=O)c(CC)cc2CC)cc1NC(C)=O` [N,N′-[Disulphanediylbis(4,6-diethylbenzene-3,1-diyl)]diacetamide], the chromatographic logP in series [1] (setting [9]) turned out to be 4.02.

Regarding `CCc1cc(CC)c(SCC(F)(F)F)cc1NC(C)=O` [N-{2,4-Diethyl-5-[(2,2,2-trifluoroethyl)sulphanyl]phenyl}acetamide], in series [1] (setting [9]), the chromatographic logP turned out to be 3.07.

For `Cc1ccc(-n2ncc(=O)n(C)c2=O)cc1SCC(F)(F)F` [compound 23], the “efficacy (spider mites killed)” value in series [2] (application rate 500 g/ha) amounted to 100%. The “LogP[a]” value in series [1] (setting [3]) is recorded as 2.9. In addition, the “LogP[b]” value in series [1] (setting [4]) is on record as 2.83.

As for `Cc1cc(F)c(-n2ncc(=O)n(C(C)C)c2=O)cc1SCC(F)(F)F` [compound 26], in series [2] (application rate 500 g/ha), the “efficacy (spider mites killed)” value is on record as 100%. Besides, the “LogP[a]” value in series [1] (setting [3]) was determined as 3.73. In series [1] (setting [4]), the “LogP[b]” value came to 3.67.

On to `CCn1c(=O)cnn(-c2cc(SCC(F)(F)F)c(C)cc2C)c1=O` [compound 33], for which the “efficacy (spider mites killed)” value in series [2] (application rate 500 g/ha) is 100%. Further, the “LogP[a]” value in series [1] (setting [3]) worked out at 3.45. Also, the “LogP[b]” value in series [1] (setting [4]) is listed as 3.38.

With `Cc1cc(C)c(-n2ncc(=O)n(CC3CC3)c2=O)cc1SCC(F)(F)F` [compound 34], the “efficacy (spider mites killed)” value in series [2] (application rate 500 g/ha) is listed as 100%. Besides, the “LogP[a]” value in series [1] (setting [3]) was determined as 3.94. Besides, the “LogP[b]” value in series [1] (setting [4]) is on record as 3.87.

As for `CCn1c(=O)ccn(-c2ccc(C)c(SCC(F)(F)F)c2)c1=O` [compound 83], in series [1] (setting [3]), the “LogP[a]” value is listed as 2.74. Further, in series [1] (setting [4]), the “LogP[b]” value was 2.81.
